According to ChEMBL document CHEMBL3393036, “Tetra-substituted pyridinylimidazoles as dual inhibitors of p38α mitogen-activated protein kinase and c-Jun N-terminal kinase 3 for potential treatment of neurodegenerative diseases” (J Med Chem, 2015):

biological target: Cyclin-dependent kinase 4/cyclin D1 (Homo sapiens) (UniProt P11802+P24385); assay: Inhibition of CDK4D1 (unknown origin) at 5.5 uM by Caliper Mobility Shift Assay; assay type: protein-complex assay

Row | Compound | inhibition
1 | CC(=O)Nc1cc(-c2c(-c3ccc(F)cc3)nc(S/C=C\C(=O)O)n2C2CCCCC2)ccn1 | < 50%

biological target: T1, Serine/threonine-protein kinase 4 (Homo sapiens) (UniProt Q13043); assay: Inhibition of STK4 (unknown origin) at 5.5 uM by Caliper Mobility Shift Assay
T1 sequence (whole entry): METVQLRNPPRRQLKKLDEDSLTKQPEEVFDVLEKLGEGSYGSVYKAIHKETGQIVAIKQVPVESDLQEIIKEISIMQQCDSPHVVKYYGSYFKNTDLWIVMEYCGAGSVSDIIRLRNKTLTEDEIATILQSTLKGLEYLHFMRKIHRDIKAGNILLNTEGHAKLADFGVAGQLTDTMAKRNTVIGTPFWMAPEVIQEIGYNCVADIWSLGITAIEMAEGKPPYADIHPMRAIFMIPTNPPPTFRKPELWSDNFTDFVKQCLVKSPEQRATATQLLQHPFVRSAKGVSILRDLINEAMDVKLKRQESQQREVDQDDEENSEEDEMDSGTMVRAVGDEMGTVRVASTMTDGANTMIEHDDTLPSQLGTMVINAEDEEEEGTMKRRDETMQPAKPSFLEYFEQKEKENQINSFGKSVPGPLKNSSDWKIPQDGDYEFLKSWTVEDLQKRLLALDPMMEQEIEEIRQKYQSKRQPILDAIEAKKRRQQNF

Row | Compound | inhibition
2 | CC(=O)Nc1cc(-c2c(-c3ccc(F)cc3)nc(S/C=C\C(=O)O)n2C2CCCCC2)ccn1 | < 50%

biological target: ALK tyrosine kinase receptor (Homo sapiens) (UniProt Q9UM73); assay: Inhibition of ALK (unknown origin) at 5.5 uM by Caliper Mobility Shift Assay

Row | Compound | inhibition
3 | CC(=O)Nc1cc(-c2c(-c3ccc(F)cc3)nc(S/C=C\C(=O)O)n2C2CCCCC2)ccn1 | < 50%

organism: Homo sapiens; assay: Inhibition of PRKACA(PKA) (unknown origin) at 5.5 uM by Caliper Mobility Shift Assay

Row | Compound | inhibition
4 | CC(=O)Nc1cc(-c2c(-c3ccc(F)cc3)nc(S/C=C\C(=O)O)n2C2CCCCC2)ccn1 | < 50%

biological target: Fibroblast growth factor receptor 3 (Homo sapiens) (UniProt P22607); assay: Inhibition of FGFR3 (unknown origin) at 5.5 uM by Caliper Mobility Shift Assay

Row | Compound | inhibition
5 | CC(=O)Nc1cc(-c2c(-c3ccc(F)cc3)nc(S/C=C\C(=O)O)n2C2CCCCC2)ccn1 | < 50%

biological target: Receptor-type tyrosine-protein kinase FLT3 (Homo sapiens) (UniProt P36888); assay: Inhibition of FLT3 (unknown origin) at 5.5 uM by Caliper Mobility Shift Assay

Row | Compound | inhibition
6 | CC(=O)Nc1cc(-c2c(-c3ccc(F)cc3)nc(S/C=C\C(=O)O)n2C2CCCCC2)ccn1 | < 50%

biological target: Calcium/calmodulin-dependent protein kinase type II subunit beta (Homo sapiens) (UniProt Q13554); assay: Inhibition of CAMK2 (unknown origin) at 5.5 uM by Caliper Mobility Shift Assay
Sequence (Q13554 whole entry): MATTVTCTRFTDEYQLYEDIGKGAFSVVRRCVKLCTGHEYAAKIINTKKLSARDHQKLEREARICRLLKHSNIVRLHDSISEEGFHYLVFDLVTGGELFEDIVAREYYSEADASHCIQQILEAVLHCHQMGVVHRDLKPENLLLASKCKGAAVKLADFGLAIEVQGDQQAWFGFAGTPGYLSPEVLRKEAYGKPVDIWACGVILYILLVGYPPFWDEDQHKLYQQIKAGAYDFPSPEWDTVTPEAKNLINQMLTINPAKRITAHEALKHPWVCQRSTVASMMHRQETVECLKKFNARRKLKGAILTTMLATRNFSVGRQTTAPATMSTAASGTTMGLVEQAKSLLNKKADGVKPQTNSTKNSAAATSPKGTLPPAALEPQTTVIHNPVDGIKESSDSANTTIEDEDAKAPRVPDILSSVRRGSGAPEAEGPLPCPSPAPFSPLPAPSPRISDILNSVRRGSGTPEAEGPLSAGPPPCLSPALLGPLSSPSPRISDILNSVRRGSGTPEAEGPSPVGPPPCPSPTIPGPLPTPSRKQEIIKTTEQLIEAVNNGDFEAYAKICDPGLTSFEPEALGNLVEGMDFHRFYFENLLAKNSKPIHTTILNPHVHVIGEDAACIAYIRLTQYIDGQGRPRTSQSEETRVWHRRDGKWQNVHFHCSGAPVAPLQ

Row | Compound | inhibition
7 | CC(=O)Nc1cc(-c2c(-c3ccc(F)cc3)nc(S/C=C\C(=O)O)n2C2CCCCC2)ccn1 | < 50%

biological target: Tyrosine-protein kinase Lck (Homo sapiens) (UniProt P06239); assay: Inhibition of LCK (unknown origin) at 5.5 uM by Caliper Mobility Shift Assay
Sequence (P06239 2-509 limits assumed): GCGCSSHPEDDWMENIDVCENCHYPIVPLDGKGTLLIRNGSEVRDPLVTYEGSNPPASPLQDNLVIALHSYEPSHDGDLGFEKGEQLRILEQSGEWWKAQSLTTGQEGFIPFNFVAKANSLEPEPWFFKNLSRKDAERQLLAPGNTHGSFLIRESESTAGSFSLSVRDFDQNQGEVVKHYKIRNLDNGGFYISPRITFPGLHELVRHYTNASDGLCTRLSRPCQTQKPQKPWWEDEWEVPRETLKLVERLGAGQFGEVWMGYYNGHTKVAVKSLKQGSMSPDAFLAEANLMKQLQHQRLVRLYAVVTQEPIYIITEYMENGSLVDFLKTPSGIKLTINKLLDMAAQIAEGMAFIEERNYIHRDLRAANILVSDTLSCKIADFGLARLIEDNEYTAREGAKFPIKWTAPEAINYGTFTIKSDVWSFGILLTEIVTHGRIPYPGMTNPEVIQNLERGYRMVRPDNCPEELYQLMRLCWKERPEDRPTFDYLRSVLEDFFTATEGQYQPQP

Row | Compound | inhibition
8 | CC(=O)Nc1cc(-c2c(-c3ccc(F)cc3)nc(S/C=C\C(=O)O)n2C2CCCCC2)ccn1 | < 50%

biological target: Mitogen-activated protein kinase 10 (Homo sapiens, UniProt P53779); assay: Inhibition of MAPK10 (JNK3) (unknown origin) at 5.5 uM by Caliper Mobility Shift Assay

Row | Compound | inhibition
9 | CC(=O)Nc1cc(-c2c(-c3ccc(F)cc3)nc(S/C=C\C(=O)O)n2C2CCCCC2)ccn1 | < 50%

biological target: Platelet-derived growth factor receptor alpha (Homo sapiens) (UniProt P16234); assay: Inhibition of PDGFRa (unknown origin) at 5.5 uM by Caliper Mobility Shift Assay
Sequence (P16234 whole entry): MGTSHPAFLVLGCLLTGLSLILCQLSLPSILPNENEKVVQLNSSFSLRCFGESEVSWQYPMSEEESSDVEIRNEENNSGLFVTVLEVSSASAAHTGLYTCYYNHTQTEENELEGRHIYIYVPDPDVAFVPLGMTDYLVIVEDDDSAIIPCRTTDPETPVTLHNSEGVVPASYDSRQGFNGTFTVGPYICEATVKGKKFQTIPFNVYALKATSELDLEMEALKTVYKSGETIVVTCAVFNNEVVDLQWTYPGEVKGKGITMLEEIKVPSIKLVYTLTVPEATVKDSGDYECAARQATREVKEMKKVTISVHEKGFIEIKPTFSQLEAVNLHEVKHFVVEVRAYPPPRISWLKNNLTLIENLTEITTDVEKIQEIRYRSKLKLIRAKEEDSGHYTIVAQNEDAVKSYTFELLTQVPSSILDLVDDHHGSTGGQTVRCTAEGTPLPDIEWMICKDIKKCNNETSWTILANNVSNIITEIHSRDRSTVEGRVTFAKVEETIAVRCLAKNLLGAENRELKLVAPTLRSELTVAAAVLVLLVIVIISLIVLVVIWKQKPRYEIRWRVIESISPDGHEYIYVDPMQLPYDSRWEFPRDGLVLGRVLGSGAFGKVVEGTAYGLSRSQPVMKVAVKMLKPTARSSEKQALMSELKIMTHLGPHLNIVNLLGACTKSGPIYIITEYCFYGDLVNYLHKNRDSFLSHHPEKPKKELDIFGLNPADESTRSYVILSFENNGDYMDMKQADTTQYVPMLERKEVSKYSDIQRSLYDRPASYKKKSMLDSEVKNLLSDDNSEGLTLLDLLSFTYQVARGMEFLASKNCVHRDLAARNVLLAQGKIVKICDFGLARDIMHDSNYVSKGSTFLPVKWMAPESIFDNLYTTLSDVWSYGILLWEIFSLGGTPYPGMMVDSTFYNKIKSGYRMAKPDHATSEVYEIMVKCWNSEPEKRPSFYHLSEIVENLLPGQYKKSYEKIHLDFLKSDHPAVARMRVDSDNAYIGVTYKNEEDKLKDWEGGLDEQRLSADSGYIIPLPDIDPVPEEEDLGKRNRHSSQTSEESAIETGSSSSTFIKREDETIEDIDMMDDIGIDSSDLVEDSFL

Row | Compound | inhibition
10 | CC(=O)Nc1cc(-c2c(-c3ccc(F)cc3)nc(S/C=C\C(=O)O)n2C2CCCCC2)ccn1 | < 50%

biological target: Tyrosine-protein kinase JAK1 (Homo sapiens) (UniProt P23458); assay: Inhibition of JAK1 (unknown origin) at 5.5 uM by Caliper Mobility Shift Assay

Row | Compound | inhibition
11 | CC(=O)Nc1cc(-c2c(-c3ccc(F)cc3)nc(S/C=C\C(=O)O)n2C2CCCCC2)ccn1 | < 50%

biological target: RAC-alpha serine/threonine-protein kinase (Homo sapiens) (UniProt P31749); assay: Inhibition of AKT1 (PKBa) (unknown origin) at 5.5 uM by Caliper Mobility Shift Assay
Sequence (P31749 whole entry): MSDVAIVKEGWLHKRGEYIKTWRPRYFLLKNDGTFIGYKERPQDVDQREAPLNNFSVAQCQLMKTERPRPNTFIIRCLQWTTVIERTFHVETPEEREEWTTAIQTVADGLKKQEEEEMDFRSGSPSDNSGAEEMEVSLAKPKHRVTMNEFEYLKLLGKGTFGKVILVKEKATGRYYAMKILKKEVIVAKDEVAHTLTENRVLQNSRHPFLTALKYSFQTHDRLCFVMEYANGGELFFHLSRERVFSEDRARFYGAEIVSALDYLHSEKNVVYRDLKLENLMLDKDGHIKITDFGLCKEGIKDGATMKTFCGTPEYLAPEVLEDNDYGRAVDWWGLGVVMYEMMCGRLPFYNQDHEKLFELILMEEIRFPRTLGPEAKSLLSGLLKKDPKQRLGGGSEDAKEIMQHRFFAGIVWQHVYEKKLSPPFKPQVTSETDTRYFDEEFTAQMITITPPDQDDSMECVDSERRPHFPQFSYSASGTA

Row | Compound | inhibition
12 | CC(=O)Nc1cc(-c2c(-c3ccc(F)cc3)nc(S/C=C\C(=O)O)n2C2CCCCC2)ccn1 | < 50%

biological target: T2, Serine/threonine-protein kinase 17B (Homo sapiens) (UniProt O94768); assay: Inhibition of STK17B (unknown origin) at 5.5 uM by Caliper Mobility Shift Assay
T2 sequence (whole entry): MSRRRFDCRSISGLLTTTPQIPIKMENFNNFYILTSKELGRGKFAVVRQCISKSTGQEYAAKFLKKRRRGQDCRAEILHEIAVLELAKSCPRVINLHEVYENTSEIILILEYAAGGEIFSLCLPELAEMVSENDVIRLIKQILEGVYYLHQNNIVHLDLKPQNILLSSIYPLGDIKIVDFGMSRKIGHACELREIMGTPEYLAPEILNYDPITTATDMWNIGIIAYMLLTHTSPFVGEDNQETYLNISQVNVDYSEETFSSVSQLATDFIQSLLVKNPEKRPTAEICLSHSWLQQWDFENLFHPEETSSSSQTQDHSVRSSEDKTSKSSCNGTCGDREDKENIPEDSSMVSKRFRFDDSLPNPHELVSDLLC

Row | Compound | inhibition
13 | CC(=O)Nc1cc(-c2c(-c3ccc(F)cc3)nc(S/C=C\C(=O)O)n2C2CCCCC2)ccn1 | < 50%

biological target: Cyclin-dependent kinase 2 (Homo sapiens) (UniProt P24941); assay: Inhibition of CDK2 (unknown origin) at 5.5 uM by Caliper Mobility Shift Assay

Row | Compound | inhibition
14 | CC(=O)Nc1cc(-c2c(-c3ccc(F)cc3)nc(S/C=C\C(=O)O)n2C2CCCCC2)ccn1 | < 50%

biological target: Fibroblast growth factor receptor 4 (Homo sapiens) (UniProt P22455); assay: Inhibition of FGFR4 (unknown origin) at 5.5 uM by Caliper Mobility Shift Assay

Row | Compound | inhibition
15 | CC(=O)Nc1cc(-c2c(-c3ccc(F)cc3)nc(S/C=C\C(=O)O)n2C2CCCCC2)ccn1 | < 50%

biological target: Mitogen-activated protein kinase kinase kinase kinase 4 (Homo sapiens) (UniProt O95819); assay: Inhibition of MAP4K4 (unknown origin) at 5.5 uM by Caliper Mobility Shift Assay

Row | Compound | inhibition
16 | CC(=O)Nc1cc(-c2c(-c3ccc(F)cc3)nc(S/C=C\C(=O)O)n2C2CCCCC2)ccn1 | < 50%

organism: Homo sapiens; assay: Inhibition of CDK1B (unknown origin) at 5.5 uM by Caliper Mobility Shift Assay

Row | Compound | inhibition
17 | CC(=O)Nc1cc(-c2c(-c3ccc(F)cc3)nc(S/C=C\C(=O)O)n2C2CCCCC2)ccn1 | < 50%

biological target: Proto-oncogene tyrosine-protein kinase receptor Ret (Homo sapiens) (UniProt P07949); assay: Inhibition of RET (unknown origin) at 5.5 uM by Caliper Mobility Shift Assay
Sequence (P07949 whole entry): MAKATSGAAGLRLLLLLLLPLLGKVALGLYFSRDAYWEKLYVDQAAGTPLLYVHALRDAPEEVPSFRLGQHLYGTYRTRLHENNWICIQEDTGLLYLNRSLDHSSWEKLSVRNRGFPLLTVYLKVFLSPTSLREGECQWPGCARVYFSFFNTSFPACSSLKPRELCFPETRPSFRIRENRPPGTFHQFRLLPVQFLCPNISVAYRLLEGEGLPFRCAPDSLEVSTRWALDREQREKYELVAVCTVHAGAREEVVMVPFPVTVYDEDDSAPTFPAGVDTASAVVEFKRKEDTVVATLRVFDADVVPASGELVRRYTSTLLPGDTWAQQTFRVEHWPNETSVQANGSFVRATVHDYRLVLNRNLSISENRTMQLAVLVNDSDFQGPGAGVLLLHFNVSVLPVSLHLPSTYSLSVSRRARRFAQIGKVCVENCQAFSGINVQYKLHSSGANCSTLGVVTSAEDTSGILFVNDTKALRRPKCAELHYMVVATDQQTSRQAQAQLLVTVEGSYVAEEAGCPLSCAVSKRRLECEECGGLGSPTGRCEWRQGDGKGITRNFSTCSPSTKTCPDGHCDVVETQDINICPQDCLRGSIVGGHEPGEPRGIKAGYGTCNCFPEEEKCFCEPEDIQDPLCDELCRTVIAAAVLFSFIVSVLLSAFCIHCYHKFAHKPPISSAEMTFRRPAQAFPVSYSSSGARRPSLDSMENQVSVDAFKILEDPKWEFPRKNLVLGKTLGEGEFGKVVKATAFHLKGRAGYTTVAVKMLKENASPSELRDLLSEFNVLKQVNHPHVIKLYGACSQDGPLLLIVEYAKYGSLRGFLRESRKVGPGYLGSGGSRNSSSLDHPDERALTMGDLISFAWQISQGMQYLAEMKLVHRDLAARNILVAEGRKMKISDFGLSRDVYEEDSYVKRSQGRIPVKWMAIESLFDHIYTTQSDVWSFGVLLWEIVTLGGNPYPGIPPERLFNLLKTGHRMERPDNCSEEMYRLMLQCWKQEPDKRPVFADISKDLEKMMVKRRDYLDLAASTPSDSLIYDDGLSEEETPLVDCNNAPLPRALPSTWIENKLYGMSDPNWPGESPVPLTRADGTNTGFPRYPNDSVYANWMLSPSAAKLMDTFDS

Row | Compound | inhibition
18 | CC(=O)Nc1cc(-c2c(-c3ccc(F)cc3)nc(S/C=C\C(=O)O)n2C2CCCCC2)ccn1 | < 50%

biological target: T3, Tyrosine-protein kinase ZAP-70 (Homo sapiens) (UniProt P43403); assay: Inhibition of ZAP70 (unknown origin) at 5.5 uM by Caliper Mobility Shift Assay
T3 sequence (whole entry): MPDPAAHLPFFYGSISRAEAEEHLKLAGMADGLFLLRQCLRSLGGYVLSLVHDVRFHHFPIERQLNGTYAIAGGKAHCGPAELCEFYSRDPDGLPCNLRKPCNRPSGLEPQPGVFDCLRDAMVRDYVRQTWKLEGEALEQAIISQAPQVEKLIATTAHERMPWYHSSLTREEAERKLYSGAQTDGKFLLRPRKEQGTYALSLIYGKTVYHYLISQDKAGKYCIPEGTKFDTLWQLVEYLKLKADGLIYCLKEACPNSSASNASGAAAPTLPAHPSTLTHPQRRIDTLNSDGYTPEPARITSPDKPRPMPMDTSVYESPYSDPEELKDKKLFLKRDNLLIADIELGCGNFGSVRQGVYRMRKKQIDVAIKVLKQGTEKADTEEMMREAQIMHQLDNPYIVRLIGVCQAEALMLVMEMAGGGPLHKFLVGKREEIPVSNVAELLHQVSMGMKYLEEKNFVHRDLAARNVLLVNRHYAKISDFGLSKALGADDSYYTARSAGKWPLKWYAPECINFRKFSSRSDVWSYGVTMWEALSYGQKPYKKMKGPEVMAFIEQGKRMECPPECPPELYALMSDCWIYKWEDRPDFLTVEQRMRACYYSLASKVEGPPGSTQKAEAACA

Row | Compound | inhibition
19 | CC(=O)Nc1cc(-c2c(-c3ccc(F)cc3)nc(S/C=C\C(=O)O)n2C2CCCCC2)ccn1 | < 50%

test system: Fibroblast growth factor receptor 3 (Homo sapiens), P22607 [K650E]; assay: Inhibition of FGFR3 K650E (unknown origin) at 5.5 uM by Caliper Mobility Shift Assay
Sequence (P22607 whole entry K650E): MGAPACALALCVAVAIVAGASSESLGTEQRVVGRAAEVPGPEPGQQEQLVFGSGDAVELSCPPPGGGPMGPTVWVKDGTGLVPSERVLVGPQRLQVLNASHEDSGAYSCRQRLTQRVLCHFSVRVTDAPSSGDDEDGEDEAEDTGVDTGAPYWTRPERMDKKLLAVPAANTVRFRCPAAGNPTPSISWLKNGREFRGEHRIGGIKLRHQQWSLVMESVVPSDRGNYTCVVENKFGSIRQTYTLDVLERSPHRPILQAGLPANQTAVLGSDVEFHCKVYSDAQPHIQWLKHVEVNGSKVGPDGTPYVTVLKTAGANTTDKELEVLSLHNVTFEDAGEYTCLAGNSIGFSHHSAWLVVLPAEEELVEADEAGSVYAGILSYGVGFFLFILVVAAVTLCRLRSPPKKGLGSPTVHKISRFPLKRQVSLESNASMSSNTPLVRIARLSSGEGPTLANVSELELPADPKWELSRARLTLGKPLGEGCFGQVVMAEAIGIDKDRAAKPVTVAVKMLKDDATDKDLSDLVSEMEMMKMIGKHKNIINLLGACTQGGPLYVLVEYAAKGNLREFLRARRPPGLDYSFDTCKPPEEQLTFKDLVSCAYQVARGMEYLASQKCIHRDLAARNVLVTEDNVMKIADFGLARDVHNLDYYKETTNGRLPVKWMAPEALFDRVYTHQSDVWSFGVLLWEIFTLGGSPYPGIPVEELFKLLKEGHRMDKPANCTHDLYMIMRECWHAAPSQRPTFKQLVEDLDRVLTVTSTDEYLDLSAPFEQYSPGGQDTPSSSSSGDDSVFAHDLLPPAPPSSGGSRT

Row | Compound | inhibition
20 | CC(=O)Nc1cc(-c2c(-c3ccc(F)cc3)nc(S/C=C\C(=O)O)n2C2CCCCC2)ccn1 | < 50%

biological target: Protein kinase C alpha type (Homo sapiens) (UniProt P17252); assay: Inhibition of PRKCA (unknown origin) at 5.5 uM by Caliper Mobility Shift Assay

Row | Compound | inhibition
21 | CC(=O)Nc1cc(-c2c(-c3ccc(F)cc3)nc(S/C=C\C(=O)O)n2C2CCCCC2)ccn1 | < 50%
